The target in one data set is T1, horseradish peroxidase (Armoracia rusticana, UniProt P00433).
T1 sequence (P00433 31-338 limits assumed): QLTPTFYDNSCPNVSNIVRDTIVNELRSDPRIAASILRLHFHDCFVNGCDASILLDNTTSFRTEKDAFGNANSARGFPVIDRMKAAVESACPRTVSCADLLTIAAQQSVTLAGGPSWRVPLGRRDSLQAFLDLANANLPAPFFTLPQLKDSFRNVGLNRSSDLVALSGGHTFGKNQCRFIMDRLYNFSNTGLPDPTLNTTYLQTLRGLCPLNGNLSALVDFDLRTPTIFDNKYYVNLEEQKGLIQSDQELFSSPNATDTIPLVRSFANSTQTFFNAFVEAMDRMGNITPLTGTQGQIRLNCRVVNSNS
In words: Comparison of compounds 1a-e at pH 8.9, time course and total intensity of chemiluminescence. As to conditions: 0.01 mM acridan, 0.1M phosphate pH 8.9, 6.2 mM H2O2, 2.25 mM p-iodophenol, 1×10^-13 mol HRP; for I max (RLU), peak light intensity: 0.5% Tween 20, 1 mM EDTA. In kind it is biochemical. The protocol:
(§1) The experiments in the following examples were performed using a Turner Designs TD-20e luminometer fitted with neutral density filter for light attenuation. Data collection, analysis and display were software controlled. Constant temperature was maintained by means of an external circulating water bath connected to the luminometer.
A 200 μL volume of a formulation containing 0.01 mM acridan compound 1a-e in 0.1M phosphate buffer, pH 8.9, […] (6.2 mM) H2 O2, 2.25 mM p-iodophenol, 0.5% (w/w) Tween 20 and 1 mM EDTA was reacted with 1×10^-13 mol of horseradish peroxidase. […] Compared below are the peak light intensity (Imax) in relative light units (RLU), the time to maximum light intensity (tmax) and total light output.

The target in data set [1] is T2, HRP (Armoracia rusticana, UniProt P00433).
T2 sequence (P00433 31-338 limits assumed): T1 sequence (P00433 31-338 limits assumed)
The data set can be described thus: Optimization of enhancer and peroxide concentration, HRP-catalyzed oxidation of 1b. In kind it is biochemical, horseradish. The note with it: at the best level, 7×10^-16 mol HRP, 15 min, 0.1M tris pH 8.0, substrate 1b. On the procedure: as §1
Enhancement of light emission from the HRP-catalyzed oxidation of 1b was studied using p-iodophenol. A series of concentrations of p-iodophenol (0.23 mM-4.5 mM) was used in 0.1M tris buffer, pH 8.0. Signal to background ratios obtained after incubation with 7×10^-16 mol of HRP for 15 min were compared using different assay reagents 1b (0.1 mM-0.05 mM) and peroxide (0.2 mM-0.8 mM)]. The best compromise between sensitivity and concentration was obtained using 1.1 mMp-iodophenol with 0.8 mMperoxide and 0.05 mM 1b. At the best level, 2500-fold enhancement in chemiluminescence intensity (compared to an identical solution containing no enhancer) was obtained using p-iodophenol with 7×10^-16 mol of enzyme.

Data set [2] concerns the target T2, HRP. The data set can be described thus: Improvement of detection by phenol enhancers. In kind it is biochemical, horseradish. As to conditions: 2.25 mM enhancer, 0.1 mM 1b, 0.8 mM H2O2, 0.5% Tween 20, 0.1M tris pH 8.5, 25° C., 1×10^-15 mol HRP, 30 min. On the procedure: as §1
To 220 μL of a formulation containing 0.1 mM 1b, 2.25 mM enhancer, 0.8 mM H2 O2, 0.5% (w/w) Tween 20 and 1 mM EDTA in 0.1M tris buffer, pH 8.5 at 25° C. an aliquot containing 1×10^-15 mol of HRP was injected and the chemiluminescence at 30 min was measured.

The conditions of data set [3]: benzoyl peroxide, aqueous solution; cited from earlier work.
Data set [4] is described as follows: Improvement of detection by surfactants, background luminescence of 1b solution without peroxidase. The note with it: Tween 20 0.5%-1%; no added peroxidase. An excerpt:
The improvement occurs through minimizing the background chemiluminescence in the absence of added peroxidase, possibly due to a slowing of the autoxidative decomposition of the ester. In one experiment, Tween 20 (0.5%-1%) decreased the background luminescence from a solution of 1b by a factor of 65 compared to a similar solution lacking the surfactant.

On to `CN1c2ccccc2C(C(=O)Oc2cccc(O)c2)c2ccccc21` [Compound 1c, 3'-Hydroxyphenyl 10-methylacridan-9-carboxylate], for which, on horseradish peroxidase, the “I max (RLU), peak light intensity” value amounted to 24 RLU; the “I total (RLU), total light output” value is listed as 3.6 × 10^4 RLU; the “t max (min), time to maximum light intensity” value (“t max (min), time” below) is listed as 7.8 min.
Turning to `Oc1ccc(I)cc1` [p-iodophenol], on HRP [1], the “enhancement in chemiluminescence intensity (compared to an identical solution containing no enhancer)” value was 2500 fold. Also, the S/B on HRP [2] was found to be 600.
Regarding `Cc1ccc(S(=O)(=O)N(C(=O)C2c3ccccc3N(C)c3ccccc32)c2ccccc2)cc1` [Compound 1e], on horseradish peroxidase, the “I max (RLU), peak light intensity” value was found to be 8160 RLU; the “I total (RLU), total light output” value is recorded as 1.5 × 10^6 RLU; the “t max (min), time” value amounted to 1.4 min.
For `c1ccc2c(c1)Cc1ccccc1N2` [acridan], the “chemiluminescence efficiency (OCL)” value in data set [3] is given as 3×10^-7.
With Tween 20, in data set [4], the “decrease of background luminescence from a solution of 1b (factor, compared to a similar solution lacking the surfactant)” value amounted to 65.
As to `O=C(O)C=Cc1ccc(O)cc1` [p-hydroxycinnamic acid], the S/B on HRP [2] turned out to be 9.
For `CCCCCCCCCCCCOS(=O)(=O)[O-].[Na+]` [SDS, sodium dodecyl sulfate], in data set [4], the “decrease of background luminescence from a solution of 1b (factor, compared to a similar solution lacking the surfactant)” value was “similarly lowers background luminescence”.
Consider `Oc1ccc(-c2ccccc2)cc1` [p-phenylphenol], for which the S/B at HRP [2] turned out to be 200.
For `CN1c2ccccc2C(C(=O)Oc2ccccc2)c2ccccc21` [Compound 1a, Phenyl 10-methylacridan-9-carboxylate], on horseradish peroxidase, the “I max (RLU), peak light intensity” value stood at 247 RLU; the “I total (RLU), total light output” value is on record as “ca. 6 × 10^5 RLU”; the “t max (min), time” value was 9.6 min.
As to `Oc1ccc2ccccc2c1` [Compound 2-naphthol, 2-naphthol], the S/B at HRP [2] is given as 138.
For `CN1c2ccccc2C(C(=O)Oc2ccc3cc(O)ccc3c2)c2ccccc21` [Compound 1d, 6'-Hydroxynaphthyl 10-methylacridan-9-carboxylate], at horseradish peroxidase, the “I max (RLU), peak light intensity” value is recorded as 992 RLU; the “I total (RLU), total light output” value is 7.4 × 10^5 RLU; the “t max (min), time” value came to 1.8 min.
